Experimental data published in US9000029B2, “Proline sulfonamide derivatives as orexin receptor antagonists” (Actelion Pharmaceuticals Ltd., priority 2010, dated 2015).
Where two headings read alike, the source gives them in different places.

How the values were obtained:
human orexin-2 receptor = human orexin-2 receptor (Homo sapiens (Human), UniProt O43614); experiment: Intracellular calcium measurements (FLIPR), antagonism of orexin-A response; assay type: cell-based; details: CHO cells, 3 nM orexin-A, read-out: IC50 Ox2
Sequence of human orexin-2 receptor (O43614 whole entry): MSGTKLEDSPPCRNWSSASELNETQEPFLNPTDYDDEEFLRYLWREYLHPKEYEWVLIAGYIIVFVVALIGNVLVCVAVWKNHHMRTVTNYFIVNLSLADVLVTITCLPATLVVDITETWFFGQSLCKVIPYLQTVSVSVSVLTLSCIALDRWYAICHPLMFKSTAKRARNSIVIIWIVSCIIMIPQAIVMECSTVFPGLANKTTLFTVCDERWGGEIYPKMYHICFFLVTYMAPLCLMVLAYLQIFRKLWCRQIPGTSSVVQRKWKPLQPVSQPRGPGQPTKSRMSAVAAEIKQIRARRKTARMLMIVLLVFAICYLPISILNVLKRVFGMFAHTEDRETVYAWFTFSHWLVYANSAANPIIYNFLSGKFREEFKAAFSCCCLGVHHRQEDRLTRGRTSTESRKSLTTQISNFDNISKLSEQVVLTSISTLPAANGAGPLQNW
Experimental: (§1) In Vitro Assay: Intracellular Calcium Measurements:
(§2) Chinese hamster ovary (CHO) cells expressing the human orexin-1 receptor and the human orexin-2 receptor, respectively, are grown in culture medium (Ham F-12 with L-Glutamine) containing 300 μg/ml G418, 100 U/ml penicillin, 100 μg/ml streptomycin and 10% heat inactivated fetal calf serum (FCS). The cells are seeded at 20'000 cells/well into 384-well black clear bottom sterile plates (Greiner). The seeded plates are incubated overnight at 37° C. in 5% CO2.
(§3) Human orexin-A as an agonist is prepared as 1 mM stock solution in MeOH: water (1:1), diluted in HBSS containing 0.1% bovine serum albumin (BSA), NaHCO3: 0.375 g/l and 20 mM HEPES for use in the assay at a final concentration of 3 nM.
(§4) Antagonists are prepared as 10 mM stock solution in DMSO, then diluted in 384-well plates using DMSO followed by a transfer of the dilutions into in HBSS containing 0.1% bovine serum albumin (BSA), NaHCO3: 0.375 g/l and 20 mM HEPES. On the day of the assay, 50 μl of staining buffer (HBSS containing 1% FCS, 20 mM HEPES, NaHCO3: 0.375 g/l, 5 mM probenecid (Sigma) and 3 μM of the fluorescent calcium indicator fluo-4 AM (1 mM stock solution in DMSO, containing 10% pluronic) is added to each well. The 384-well cell-plates are incubated for 50 min at 37° C. in 5% CO2 followed by equilibration at RT for 30 min before measurement.
(§5) Within the Fluorescent Imaging Plate Reader (FLIPR Tetra, Molecular Devices), antagonists are added to the plate in a volume of 10 μl/well, incubated for 10 min or (where explicitly indicated) for 120 min and finally 10 μl/well of agonist is added. Fluorescence is measured for each well at 1 second intervals, and the height of each fluorescence peak is compared to the height of the fluorescence peak induced by 3 nM orexin-A with vehicle in place of antagonist. The IC50 value (the concentration of compound needed to inhibit 50% of the agonistic response) is determined and may be normalized using the obtained IC50 value of a on-plate reference compound. Optimized conditions were achieved by adjustment of pipetting speed and cell splitting regime. The calculated IC50 values may fluctuate depending on the daily cellular assay performance. Fluctuations of this kind are known to those skilled in the art.

human orexin-1 receptor = human orexin-1 receptor (Homo sapiens (Human), UniProt O43613); experiment: as above; assay type: cell-based; details: CHO cells, 3 nM orexin-A, read-out: IC50 Ox1
Sequence of human orexin-1 receptor (O43613 whole entry): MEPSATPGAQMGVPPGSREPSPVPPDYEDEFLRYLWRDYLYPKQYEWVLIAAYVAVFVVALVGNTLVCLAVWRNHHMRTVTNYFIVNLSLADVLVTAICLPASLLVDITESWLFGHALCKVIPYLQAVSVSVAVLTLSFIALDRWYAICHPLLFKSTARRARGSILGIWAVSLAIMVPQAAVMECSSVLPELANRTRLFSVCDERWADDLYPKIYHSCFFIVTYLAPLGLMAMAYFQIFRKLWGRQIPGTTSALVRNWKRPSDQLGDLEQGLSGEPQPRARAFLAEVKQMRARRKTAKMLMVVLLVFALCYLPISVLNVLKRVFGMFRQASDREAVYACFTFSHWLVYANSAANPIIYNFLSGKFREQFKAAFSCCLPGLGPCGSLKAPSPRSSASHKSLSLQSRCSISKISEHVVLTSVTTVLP
Experimental: as §1, §2, §3, §4, §5

[1] = compound incubation time of 120 min

COc1ccc(S(=O)(=O)N2CCC[C@H]2C(=O)Nc2ccc(F)c(Cl)c2)cc1 [Example 31, (S)-1-(4-Methoxy-benzenesulfonyl)-pyrrolidine-2-carboxylic acid (3-chloro-4-fluoro-phenyl)-amide]
IC50 (human orexin-2 receptor; compound incubation 10 min): 34 nM
IC50 (human orexin-1 receptor; compound incubation 10 min): 74 nM

CCOc1cccc(NC(=O)[C@@H]2CCCN2S(=O)(=O)c2ccc(OC)cc2)c1 [Example 32, (S)-1-(4-Methoxy-benzenesulfonyl)-pyrrolidine-2-carboxylic acid (3-ethoxy-phenyl)-amide]
IC50 (human orexin-2 receptor; compound incubation 10 min): 38 nM
IC50 (human orexin-1 receptor; compound incubation 10 min): 134 nM

COc1ccc(S(=O)(=O)N2CCC[C@H]2C(=O)Nc2ccc3c(c2)CCC3)cc1 [Example 33, (S)-1-(4-Methoxy-benzenesulfonyl)-pyrrolidine-2-carboxylic acid indan-5-ylamide]
IC50 (human orexin-2 receptor; compound incubation 10 min): 12 nM
IC50 (human orexin-1 receptor; compound incubation 10 min): 129 nM

CCc1cccc(NC(=O)[C@@H]2CCCN2S(=O)(=O)c2ccc(OC)cc2)c1 [Example 34, (S)-1-(4-Methoxy-benzenesulfonyl)-pyrrolidine-2-carboxylic acid (3-ethyl-phenyl)-amide]
IC50 (human orexin-2 receptor; compound incubation 10 min): 8 nM
IC50 (human orexin-1 receptor; compound incubation 10 min): 54 nM

COc1ccc(S(=O)(=O)N2CCC[C@H]2C(=O)Nc2cc(Cl)ccc2OC)cc1 [Example 35, (S)-1-(4-Methoxy-benzenesulfonyl)-pyrrolidine-2-carboxylic acid (5-chloro-2-methoxy-phenyl)-amide]
IC50 (human orexin-2 receptor; compound incubation 10 min): 209 nM
IC50 (human orexin-1 receptor; compound incubation 10 min): 714 nM

COc1ccc(S(=O)(=O)N2CCC[C@H]2C(=O)Nc2ccc(F)c(F)c2)cc1 [Example 36, (S)-1-(4-Methoxy-benzenesulfonyl)-pyrrolidine-2-carboxylic acid (3,4-difluoro-phenyl)-amide]
IC50 (human orexin-2 receptor; compound incubation 10 min): 136 nM
IC50 (human orexin-1 receptor; compound incubation 10 min): 569 nM

COc1ccc(S(=O)(=O)N2CCC[C@H]2C(=O)Nc2ccc(F)c(C)c2)cc1 [Example 37, (S)-1-(4-Methoxy-benzenesulfonyl)-pyrrolidine-2-carboxylic acid (4-fluoro-3-methyl-phenyl)-amide]
IC50 (human orexin-2 receptor; compound incubation 10 min): 28 nM
IC50 (human orexin-1 receptor; compound incubation 10 min): 70 nM

COc1ccc(S(=O)(=O)N2CCC[C@H]2C(=O)Nc2cc(C)ccc2F)cc1 [Example 38, (S)-1-(4-Methoxy-benzenesulfonyl)-pyrrolidine-2-carboxylic acid (2-fluoro-5-methyl-phenyl)-amide]
IC50 (human orexin-2 receptor; compound incubation 10 min): 26 nM
IC50 (human orexin-1 receptor; compound incubation 10 min): 304 nM

COc1ccc(S(=O)(=O)N2CCC[C@H]2C(=O)Nc2ccc(Cl)c(C)c2)cc1 [Example 39, (S)-1-(4-Methoxy-benzenesulfonyl)-pyrrolidine-2-carboxylic acid (4-chloro-3-methyl-phenyl)-amide]
IC50 (human orexin-2 receptor; compound incubation 10 min): 18 nM
IC50 (human orexin-1 receptor; compound incubation 10 min): 235 nM

COc1ccc(S(=O)(=O)N2CCC[C@H]2C(=O)Nc2ccc(Cl)c(Cl)c2)cc1 [Example 40, (S)-1-(4-Methoxy-benzenesulfonyl)-pyrrolidine-2-carboxylic acid (3,4-dichloro-phenyl)-amide]
IC50 (human orexin-2 receptor; compound incubation 10 min): 58 nM
IC50 (human orexin-1 receptor; compound incubation 10 min): 130 nM

Cc1cc(C)cc(NC(=O)[C@@H]2CCCN2S(=O)(=O)c2ccc(Br)cc2)c1 [Example 41, (S)-1-(4-Bromo-benzenesulfonyl)-pyrrolidine-2-carboxylic acid (3,5-dimethyl-phenyl)-amide]
IC50 (human orexin-2 receptor; [1]): 49 nM
IC50 (human orexin-1 receptor; [1]): 79 nM

Cc1cc(C)cc(NC(=O)[C@@H]2CCCN2S(=O)(=O)c2cccc3ccccc23)c1 [Example 42, (S)-1-(Naphthalene-1-sulfonyl)-pyrrolidine-2-carboxylic acid (3,5-dimethyl-phenyl)-amide]
IC50 (human orexin-2 receptor; [1]): 26 nM
IC50 (human orexin-1 receptor; [1]): 216 nM

Cc1cc(C)cc(NC(=O)[C@@H]2CCCN2S(=O)(=O)c2ccc3ccccc3c2)c1 [Example 43, (S)-1-(Naphthalene-2-sulfonyl)-pyrrolidine-2-carboxylic acid (3,5-dimethyl-phenyl)-amide]
IC50 (human orexin-2 receptor; [1]): 25 nM
IC50 (human orexin-1 receptor; [1]): 73 nM

COc1ccc(S(=O)(=O)N2CCC[C@H]2C(=O)Nc2cc(C)cc(C)c2)cc1OC [Example 44, (S)-1-(3,4-Dimethoxy-benzenesulfonyl)-pyrrolidine-2-carboxylic acid (3,5-dimethyl-phenyl)-amide]
IC50 (human orexin-2 receptor; [1]): 101 nM
IC50 (human orexin-1 receptor; [1]): 109 nM

COc1cc(C)ccc1S(=O)(=O)N1CCC[C@H]1C(=O)Nc1cc(C)cc(C)c1 [Example 45, (S)-1-(2-Methoxy-4-methyl-benzenesulfonyl)-pyrrolidine-2-carboxylic acid (3,5-dimethyl-phenyl)-amide]
IC50 (human orexin-2 receptor; [1]): 168 nM
IC50 (human orexin-1 receptor; [1]): 166 nM

Cc1cc(C)cc(NC(=O)[C@@H]2CCCN2S(=O)(=O)c2ccc(Cl)cc2)c1 [Example 46, (S)-1-(4-Chloro-benzenesulfonyl)-pyrrolidine-2-carboxylic acid (3,5-dimethyl-phenyl)-amide]
IC50 (human orexin-2 receptor; [1]): 32 nM
IC50 (human orexin-1 receptor; [1]): 35 nM

C=Cc1ccc(S(=O)(=O)N2CCC[C@H]2C(=O)Nc2cc(C)cc(C)c2)cc1 [Example 47, (S)-1-(4-Vinyl-benzenesulfonyl)-pyrrolidine-2-carboxylic acid (3,5-dimethyl-phenyl)-amide]
IC50 (human orexin-2 receptor; [1]): 92 nM
IC50 (human orexin-1 receptor; [1]): 189 nM

COc1ccc(C)cc1S(=O)(=O)N1CCC[C@H]1C(=O)Nc1cc(C)cc(C)c1 [Example 48, (S)-1-(2-Methoxy-5-methyl-benzenesulfonyl)-pyrrolidine-2-carboxylic acid (3,5-dimethyl-phenyl)-amide]
IC50 (human orexin-2 receptor; [1]): 4 nM
IC50 (human orexin-1 receptor; [1]): 43 nM

Cc1cc(C)cc(NC(=O)[C@@H]2CCCN2S(=O)(=O)c2ccc(S(C)(=O)=O)cc2)c1 [Example 49, (S)-1-(4-Methanesulfonyl-benzenesulfonyl)-pyrrolidine-2-carboxylic acid (3,5-dimethyl-phenyl)-amide]
IC50 (human orexin-2 receptor; [1]): 197 nM
IC50 (human orexin-1 receptor; [1]): 16 nM

Cc1cc(C)cc(NC(=O)[C@@H]2CCCN2S(=O)(=O)c2cc(C(F)(F)F)ccc2Cl)c1 [Example 50, (S)-1-(2-Chloro-5-trifluoromethyl-benzenesulfonyl)-pyrrolidine-2-carboxylic acid (3,5-dimethyl-phenyl)-amide]
IC50 (human orexin-2 receptor; [1]): 36 nM
IC50 (human orexin-1 receptor; [1]): 1580 nM

Cc1cc(C)cc(NC(=O)[C@@H]2CCCN2S(=O)(=O)c2ccc(C(F)(F)F)cc2Cl)c1 [Example 51, (S)-1-(2-Chloro-4-trifluoromethyl-benzenesulfonyl)-pyrrolidine-2-carboxylic acid (3,5-dimethyl-phenyl)-amide]
IC50 (human orexin-2 receptor; [1]): 14 nM
IC50 (human orexin-1 receptor; [1]): 80 nM

Cc1cc(C)cc(NC(=O)[C@@H]2CCCN2S(=O)(=O)c2ccc(C)cc2Br)c1 [Example 52, (S)-1-(2-Bromo-4-methyl-benzenesulfonyl)-pyrrolidine-2-carboxylic acid (3,5-dimethyl-phenyl)-amide]
IC50 (human orexin-2 receptor; [1]): 82 nM
IC50 (human orexin-1 receptor; [1]): 89 nM

Cc1cc(C)cc(NC(=O)[C@@H]2CCCN2S(=O)(=O)c2ccc(Cl)c(C(F)(F)F)c2)c1 [Example 53, (S)-1-(4-Chloro-3-trifluoromethyl-benzenesulfonyl)-pyrrolidine-2-carboxylic acid (3,5-dimethyl-phenyl)-amide]
IC50 (human orexin-2 receptor; [1]): 19 nM
IC50 (human orexin-1 receptor; [1]): 48 nM

Cc1cc(C)cc(NC(=O)[C@@H]2CCCN2S(=O)(=O)c2ccc(Cl)c(Cl)c2)c1 [Example 54, (S)-1-(3,4-Dichloro-benzenesulfonyl)-pyrrolidine-2-carboxylic acid (3,5-dimethyl-phenyl)-amide]
IC50 (human orexin-2 receptor; [1]): 158 nM
IC50 (human orexin-1 receptor; [1]): 218 nM

Cc1cc(C)cc(NC(=O)[C@@H]2CCCN2S(=O)(=O)c2cc(C)c(Cl)cc2C)c1 [Example 55, (S)-1-(4-Chloro-2,5-dimethyl-benzenesulfonyl)-pyrrolidine-2-carboxylic acid (3,5-dimethyl-phenyl)-amide]
IC50 (human orexin-2 receptor; [1]): 171 nM
IC50 (human orexin-1 receptor; [1]): 234 nM
